Laboratory results published in ChEMBL document CHEMBL4665836, “Overcoming β-Lactam resistance in Pseudomonas aeruginosa using non-canonical tobramycin-based antibiotic adjuvants” (2020).

Experiments:
Assay type in all cases: functional
Pseudomonas aeruginosa [1] = experiment: Potentiation of imipenem-induced antibacterial activity against carbapenem-resistant Pseudomonas aeruginosa 86052 clinical isolate assessed as fold reduction in imipenem MIC at 8 uM in presence of beta-lactamase inhibitor, rele-bactam
Pseudomonas aeruginosa [2] = experiment: Potentiation of imipenem-induced antibacterial activity against carbapenem-resistant Pseudomonas aeruginosa 88949 clinical isolate assessed as fold reduction in imipenem MIC at 8 uM in presence of beta-lactamase inhibitor, rele-bactam
Pseudomonas aeruginosa [3] = experiment: Potentiation of imipenem-induced antibacterial activity against carbapenem-resistant Pseudomonas aeruginosa 107092 clinical isolate assessed as fold reduction in imipenem MIC at 8 uM in presence of beta-lactamase inhibitor, rele-bactam
Pseudomonas aeruginosa [4] = experiment: Potentiation of imipenem-induced antibacterial activity against carbapenem-resistant Pseudomonas aeruginosa 108590 clinical isolate assessed as fold reduction in imipenem MIC at 8 uM in presence of beta-lactamase inhibitor, rele-bactam
Pseudomonas aeruginosa [5] = experiment: Potentiation of aztreonam-induced antibacterial activity against carbapenem-resistant Pseudomonas aeruginosa 86052 clinical isolate assessed as fold reduction in aztreonam MIC at 8 uM in presence of beta-lactamase inhibitor, avi-bactam
Pseudomonas aeruginosa [6] = experiment: Potentiation of aztreonam-induced antibacterial activity against carbapenem-resistant Pseudomonas aeruginosa 88949 clinical isolate assessed as fold reduction in aztreonam MIC at 8 uM in presence of beta-lactamase inhibitor, avi-bactam
Pseudomonas aeruginosa [7] = experiment: Potentiation of aztreonam-induced antibacterial activity against carbapenem-resistant Pseudomonas aeruginosa 107092 clinical isolate assessed as fold reduction in aztreonam MIC at 8 uM in presence of beta-lactamase inhibitor, avi-bactam
Pseudomonas aeruginosa [8] = experiment: Potentiation of aztreonam-induced antibacterial activity against carbapenem-resistant Pseudomonas aeruginosa 109084 clinical isolate assessed as fold reduction in aztreonam MIC at 8 uM in presence of beta-lactamase inhibitor, avi-bactam
Pseudomonas aeruginosa [9] = experiment: Potentiation of ceftazidime-induced antibacterial activity against carbapenem-resistant Pseudomonas aeruginosa 86052 clinical isolate assessed as fold reduction in ceftazidime MIC at 8 uM in presence of beta-lactamase inhibitor, avi-bactam
Pseudomonas aeruginosa [10] = experiment: Potentiation of ceftazidime-induced antibacterial activity against carbapenem-resistant Pseudomonas aeruginosa 107092 clinical isolate assessed as fold reduction in ceftazidime MIC at 8 uM in presence of beta-lactamase inhibitor, avi-bactam
Pseudomonas aeruginosa [11] = experiment: Potentiation of ceftazidime-induced antibacterial activity against carbapenem-resistant Pseudomonas aeruginosa 109084 clinical isolate assessed as fold reduction in ceftazidime MIC at 8 uM in presence of beta-lactamase inhibitor, avi-bactam
Pseudomonas aeruginosa [12] = experiment: Potentiation of imipenem-induced antibacterial activity against carbapenem-resistant Pseudomonas aeruginosa 109084 clinical isolate assessed as imipenem MIC at 8 uM by checkerboard assay (reference value: 16 ug/ml)
Pseudomonas aeruginosa [13] = experiment: Potentiation of imipenem-induced antibacterial activity against carbapenem-resistant Pseudomonas aeruginosa 108590 clinical isolate assessed as imipenem MIC at 8 uM by checkerboard assay (reference value: 16 ug/ml)
Pseudomonas aeruginosa [14] = experiment: Potentiation of imipenem-induced antibacterial activity against carbapenem and colistin-resistant Pseudomonas aeruginosa 114228 clinical isolate assessed as imipenem MIC at 8 uM by checkerboard assay (reference value: 8 ug/ml)
Pseudomonas aeruginosa [15] = experiment: Potentiation of imipenem-induced antibacterial activity against carbapenem and colistin-resistant Pseudomonas aeruginosa 91433 clinical isolate assessed as imipenem MIC at 8 uM by checkerboard assay (reference value: 8 ug/ml)
Pseudomonas aeruginosa [16] = experiment: Potentiation of imipenem-induced antibacterial activity against carbapenem-resistant Pseudomonas aeruginosa 259-96918 clinical isolate expressing MBL assessed as imipenem MIC at 8 uM by checkerboard assay (reference value: 64 ug/ml)
Pseudomonas aeruginosa [17] = experiment: Potentiation of ceftazidime-induced antibacterial activity against carbapenem-resistant Pseudomonas aeruginosa 109084 clinical isolate assessed as ceftazidime MIC at 8 uM by checkerboard assay (reference value: 64 ug/ml)
Pseudomonas aeruginosa [18] = experiment: Potentiation of ceftazidime-induced antibacterial activity against carbapenem-resistant Pseudomonas aeruginosa 101885 clinical isolate assessed as ceftazidime MIC at 8 uM by checkerboard assay (reference value: 8 ug/ml)
Pseudomonas aeruginosa [19] = experiment: Potentiation of ceftazidime-induced antibacterial activity against carbapenem-resistant Pseudomonas aeruginosa 100036 clinical isolate assessed as ceftazidime MIC at 8 uM by checkerboard assay (reference value: 8 ug/ml)
Pseudomonas aeruginosa [20] = experiment: Potentiation of ceftazidime-induced antibacterial activity against carbapenem and colistin-resistant Pseudomonas aeruginosa 91433 clinical isolate assessed as ceftazidime MIC at 8 uM by checkerboard assay (reference value: 4 ug/ml)
Pseudomonas aeruginosa [21] = experiment: Potentiation of ceftazidime-induced antibacterial activity against carbapenem-resistant Pseudomonas aeruginosa 264-104354 clinical isolate assessed as ceftazidime MIC at 8 uM by checkerboard assay (reference value: 128 ug/ml)
Pseudomonas aeruginosa [22] = experiment: Potentiation of ceftazidime-induced antibacterial activity against carbapenem-resistant Pseudomonas aeruginosa 260-97103 clinical isolate assessed as ceftazidime MIC at 8 uM by checkerboard assay (reference value: 32 ug/ml)
Pseudomonas aeruginosa [23] = experiment: Potentiation of aztreonam-induced antibacterial activity against carbapenem-resistant Pseudomonas aeruginosa PAO750 harboring mexAB-oprM/mexCD-oprJ/mexEF-oprN/mexJK/mexXY/opmH efflux deficient mutant assessed as aztreonam MIC at 8 uM by checkerboard assay (reference value: 0.5 ug/ml)
Pseudomonas aeruginosa [24] = experiment: Potentiation of aztreonam-induced antibacterial activity against carbapenem-resistant Pseudomonas aeruginosa 109084 clinical isolate assessed as aztreonam MIC at 8 uM by checkerboard assay (reference value: 64 ug/ml)
Pseudomonas aeruginosa [25] = experiment: Potentiation of aztreonam-induced antibacterial activity against carbapenem-resistant Pseudomonas aeruginosa 108590 clinical isolate assessed as aztreonam MIC at 8 uM by checkerboard assay (reference value: 32 ug/ml)
Pseudomonas aeruginosa [26] = experiment: Potentiation of aztreonam-induced antibacterial activity against carbapenem-resistant Pseudomonas aeruginosa 88949 clinical isolate assessed as aztreonam MIC at 8 uM by checkerboard assay (reference value: 32 ug/ml)
Pseudomonas aeruginosa [27] = experiment: Potentiation of aztreonam-induced antibacterial activity against carbapenem-resistant Pseudomonas aeruginosa 101885 clinical isolate assessed as aztreonam MIC at 8 uM by checkerboard assay (reference value: 16 ug/ml)
Pseudomonas aeruginosa [28] = experiment: Potentiation of aztreonam-induced antibacterial activity against carbapenem and colistin-resistant Pseudomonas aeruginosa 91433 clinical isolate assessed as aztreonam MIC at 8 uM by checkerboard assay (reference value: 16 ug/ml)
Pseudomonas aeruginosa [29] = experiment: Potentiation of aztreonam-induced antibacterial activity against carbapenem-resistant Pseudomonas aeruginosa 264-104354 clinical isolate assessed as aztreonam MIC at 8 uM by checkerboard assay (reference value: 32 ug/ml)
Pseudomonas aeruginosa [30] = experiment: Potentiation of piperacillin-induced antibacterial activity against wild type Pseudomonas aeruginosa PAO1 assessed as piperacillin MIC at 8 uM by checkerboard assay (reference value: 8 ug/ml)
Pseudomonas aeruginosa [31] = experiment: Antibacterial activity against Pseudomonas aeruginosa PAO750 harboring mexAB-oprM/mexCD-oprJ/mexEF-oprN/mexJK/mexXY/opmH efflux deficient mutant
Pseudomonas aeruginosa [32] = experiment: Antibacterial activity against Pseudomonas aeruginosa PAO200 harboring mexAB-oprM efflux deficient mutant
Pseudomonas aeruginosa [33] = experiment: Potentiation of piperacillin-induced antibacterial activity against wild type Pseudomonas aeruginosa PAO1 assessed as fold reduction in piperacillin MIC at 8 uM

| Compound | fold change (FC) (Pseudomonas aeruginosa [1]) | fold change (FC) (Pseudomonas aeruginosa [2]) | fold change (FC) (Pseudomonas aeruginosa [3]) | fold change (FC) (Pseudomonas aeruginosa [4]) | fold change (FC) (Pseudomonas aeruginosa [5]) | fold change (FC) (Pseudomonas aeruginosa [6]) | fold change (FC) (Pseudomonas aeruginosa [7]) | fold change (FC) (Pseudomonas aeruginosa [8]) | fold change (FC) (Pseudomonas aeruginosa [9]) | fold change (FC) (Pseudomonas aeruginosa [10]) | fold change (FC) (Pseudomonas aeruginosa [11]) | MIC (Pseudomonas aeruginosa [12]) [mg/L] | MIC (Pseudomonas aeruginosa [13]) [mg/L] | MIC (Pseudomonas aeruginosa [14]) [mg/L] | MIC (Pseudomonas aeruginosa [15]) [mg/L] | MIC (Pseudomonas aeruginosa [16]) [mg/L] | MIC (Pseudomonas aeruginosa [30]) [mg/L] | MIC (Pseudomonas aeruginosa [31]) [mg/L] | MIC (Pseudomonas aeruginosa [32]) [mg/L] | fold change (FC) (Pseudomonas aeruginosa [33]) | other results |
| --- | --- | --- | --- | --- | --- | --- | --- | --- | --- | --- | --- | --- | --- | --- | --- | --- | --- | --- | --- | --- | --- |
| NC[C@H]1O[C@H](O[C@H]2[C@H](OCCCCc3cn(CCCCO[C@@H]4[C@@H](O[C@H]5O[C@H](CO)[C@@H](O)[C@H](N)[C@H]5O)[C@H](N)C[C@H](N)[C@H]4O[C@H]4O[C@H](CN)[C@@H](O)C[C@H]4N)nn3)[C@@H](O[C@H]3O[C@H](CO)[C@@H](O)[C@H](N)[C@H]3O)[C@H](N)C[C@@H]2N)[C@H](N)C[C@@H]1O.O=C(O)C(F)(F)F.O=C(O)C(F)(F)F.O=C(O)C(F)(F)F.O=C(O)C(F)(F)F.O=C(O)C(F)(F)F.O=C(O)C(F)(F)F.O=C(O)C(F)(F)F.O=C(O)C(F)(F)F.O=C(O)C(F)(F)F.O=C(O)C(F)(F)F | 16 | 16 | 16 | 16 | 16 | 16 | 16 | 16 | 16 | 16 | 16 | 8 | 4 | 0.5 | 4 | 32 | 0.5 | > 128 | > 128 | 2 | MIC (Pseudomonas aeruginosa [17]): 32 mg/L; MIC (Pseudomonas aeruginosa [18]): 2 mg/L; MIC (Pseudomonas aeruginosa [19]): 2 mg/L; MIC (Pseudomonas aeruginosa [20]): 1 mg/L; MIC (Pseudomonas aeruginosa [21]): 32 mg/L; MIC (Pseudomonas aeruginosa [22]): 8 mg/L; MIC (Pseudomonas aeruginosa [23]): 0.06 mg/L; MIC (Pseudomonas aeruginosa [24]): 8 mg/L; MIC (Pseudomonas aeruginosa [25]): 8 mg/L; MIC (Pseudomonas aeruginosa [26]): 32 mg/L; MIC (Pseudomonas aeruginosa [27]): 4 mg/L; MIC (Pseudomonas aeruginosa [28]): 4 mg/L; MIC (Pseudomonas aeruginosa [29]): 8 mg/L |
| Cl.Cl.Cl.Cl.Cl.Cl.NC[C@H]1O[C@H](O[C@H]2[C@H](OCCCCCCCCCCCCN3CCN(c4cc5c(cc4F)c(=O)c(C(=O)O)cn5C4CC4)CC3)[C@@H](O[C@H]3O[C@H](CO)[C@@H](O)[C@H](N)[C@H]3O)[C@H](N)C[C@@H]2N)[C@H](N)C[C@@H]1O | 16 | 16 | 16 | 16 | 16 | 16 | 16 | 16 | 16 | 16 | 16 | 8 | 0.25 | 2 | 2 | 16 | 2 | 2 | 4 | 2 | MIC (Pseudomonas aeruginosa [17]): 16 mg/L; MIC (Pseudomonas aeruginosa [18]): 1 mg/L; MIC (Pseudomonas aeruginosa [19]): 2 mg/L; MIC (Pseudomonas aeruginosa [20]): 2 mg/L; MIC (Pseudomonas aeruginosa [21]): 16 mg/L; MIC (Pseudomonas aeruginosa [22]): 4 mg/L; MIC (Pseudomonas aeruginosa [23]): 0.06 mg/L; MIC (Pseudomonas aeruginosa [24]): 16 mg/L; MIC (Pseudomonas aeruginosa [25]): 0.5 mg/L; MIC (Pseudomonas aeruginosa [26]): 8 mg/L; MIC (Pseudomonas aeruginosa [27]): 1 mg/L; MIC (Pseudomonas aeruginosa [28]): 4 mg/L; MIC (Pseudomonas aeruginosa [29]): 8 mg/L |
| NC[C@H]1O[C@H](O[C@H]2[C@H](OCCCCCCCCN3CCCNCCNCCCNCC3)[C@@H](O[C@H]3O[C@H](CO)[C@@H](O)[C@H](N)[C@H]3O)[C@H](N)C[C@@H]2N)[C@H](N)C[C@@H]1O.O=C(O)C(F)(F)F.O=C(O)C(F)(F)F.O=C(O)C(F)(F)F.O=C(O)C(F)(F)F.O=C(O)C(F)(F)F.O=C(O)C(F)(F)F.O=C(O)C(F)(F)F.O=C(O)C(F)(F)F.O=C(O)C(F)(F)F | 16 | 16 | 16 | 16 | 16 | 16 | 16 | 16 | 16 | 16 | 16 | 8 | 16 | 8 | 8 | 64 | 2 | 128 | > 128 | 2 |  |
